Experimental data taken from the kinase profiling compilation of Christmann-Franck et al. (2016).

Experiments:
Assay in all cases: radiometric filter-binding kinase assay
[1] = biological target: IRAK4 (human) (UniProt Q9NWZ3)
[2] = biological target: PHKG1 (human) (UniProt Q16816)
[3] = biological target: BRSK1 (human) (UniProt Q8TDC3)
[4] = biological target: PAK7 (human) (UniProt Q9P286)
[5] = biological target: STK3 (human) (UniProt Q13188)
[6] = biological target: SRPK1 (human) (UniProt Q96SB4)
Chain of SRPK1 (human) (Q96SB4 whole entry, looked up): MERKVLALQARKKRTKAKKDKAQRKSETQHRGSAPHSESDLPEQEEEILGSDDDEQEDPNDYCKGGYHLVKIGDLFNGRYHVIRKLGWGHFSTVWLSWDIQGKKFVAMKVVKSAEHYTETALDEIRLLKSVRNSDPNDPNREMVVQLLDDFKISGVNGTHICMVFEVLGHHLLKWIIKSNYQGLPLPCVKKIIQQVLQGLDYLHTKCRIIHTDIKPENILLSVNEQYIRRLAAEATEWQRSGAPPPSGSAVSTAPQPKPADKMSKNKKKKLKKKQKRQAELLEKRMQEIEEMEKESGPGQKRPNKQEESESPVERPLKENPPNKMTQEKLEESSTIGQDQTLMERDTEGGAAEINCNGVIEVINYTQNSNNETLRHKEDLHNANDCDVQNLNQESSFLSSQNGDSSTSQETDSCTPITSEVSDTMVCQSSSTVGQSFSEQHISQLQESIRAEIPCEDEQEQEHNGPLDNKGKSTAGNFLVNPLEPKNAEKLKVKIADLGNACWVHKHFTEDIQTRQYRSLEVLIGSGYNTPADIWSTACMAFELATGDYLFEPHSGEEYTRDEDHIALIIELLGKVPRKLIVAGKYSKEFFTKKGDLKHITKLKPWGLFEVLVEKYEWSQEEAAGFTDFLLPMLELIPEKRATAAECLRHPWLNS

[7] = test system: AKT2 (human), P31751 [S474D]
[8] = biological target: MAP3K1 (human) (UniProt Q13233)
[9] = biological target: MAPK1 (human) (UniProt P28482)
Chain of MAPK1 (human) (P28482 whole entry, looked up): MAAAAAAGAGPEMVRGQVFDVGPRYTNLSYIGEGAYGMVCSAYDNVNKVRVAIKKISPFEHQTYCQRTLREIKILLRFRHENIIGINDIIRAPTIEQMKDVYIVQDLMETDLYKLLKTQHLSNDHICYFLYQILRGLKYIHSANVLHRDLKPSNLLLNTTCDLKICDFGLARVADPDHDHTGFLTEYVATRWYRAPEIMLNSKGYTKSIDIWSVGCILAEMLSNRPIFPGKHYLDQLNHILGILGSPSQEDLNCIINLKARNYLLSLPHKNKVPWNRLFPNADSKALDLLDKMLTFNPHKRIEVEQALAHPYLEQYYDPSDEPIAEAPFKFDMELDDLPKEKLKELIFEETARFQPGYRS

[10] = biological target: MARK4 (human) (UniProt Q96L34)
[11] = biological target: CHEK1 (human) (UniProt O14757)
[12] = biological target: PLK1 (human) (UniProt P53350)
Chain of PLK1 (human) (P53350 whole entry, looked up): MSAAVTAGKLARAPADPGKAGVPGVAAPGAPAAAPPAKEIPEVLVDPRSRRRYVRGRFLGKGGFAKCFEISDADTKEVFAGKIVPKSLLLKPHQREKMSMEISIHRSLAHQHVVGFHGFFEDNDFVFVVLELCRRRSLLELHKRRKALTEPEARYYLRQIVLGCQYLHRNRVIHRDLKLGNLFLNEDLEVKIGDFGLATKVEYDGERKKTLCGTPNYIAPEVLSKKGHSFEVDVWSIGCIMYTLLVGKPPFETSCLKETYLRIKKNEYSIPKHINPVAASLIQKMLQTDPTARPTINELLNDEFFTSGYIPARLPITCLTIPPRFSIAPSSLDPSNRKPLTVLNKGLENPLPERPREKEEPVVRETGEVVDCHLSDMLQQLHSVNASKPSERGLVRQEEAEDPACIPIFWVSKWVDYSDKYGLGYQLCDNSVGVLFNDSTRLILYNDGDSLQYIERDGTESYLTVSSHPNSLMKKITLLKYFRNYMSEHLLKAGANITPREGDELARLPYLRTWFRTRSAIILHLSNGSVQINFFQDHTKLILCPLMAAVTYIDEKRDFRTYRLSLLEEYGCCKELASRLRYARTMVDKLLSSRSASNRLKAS

[13] = biological target: DCLK2 (human) (UniProt Q8N568)
[14] = biological target: RPS6KA5 KD1 KD2 (human) (UniProt O75582)
Chain of RPS6KA5 KD1 KD2 (human) (O75582 whole entry, looked up): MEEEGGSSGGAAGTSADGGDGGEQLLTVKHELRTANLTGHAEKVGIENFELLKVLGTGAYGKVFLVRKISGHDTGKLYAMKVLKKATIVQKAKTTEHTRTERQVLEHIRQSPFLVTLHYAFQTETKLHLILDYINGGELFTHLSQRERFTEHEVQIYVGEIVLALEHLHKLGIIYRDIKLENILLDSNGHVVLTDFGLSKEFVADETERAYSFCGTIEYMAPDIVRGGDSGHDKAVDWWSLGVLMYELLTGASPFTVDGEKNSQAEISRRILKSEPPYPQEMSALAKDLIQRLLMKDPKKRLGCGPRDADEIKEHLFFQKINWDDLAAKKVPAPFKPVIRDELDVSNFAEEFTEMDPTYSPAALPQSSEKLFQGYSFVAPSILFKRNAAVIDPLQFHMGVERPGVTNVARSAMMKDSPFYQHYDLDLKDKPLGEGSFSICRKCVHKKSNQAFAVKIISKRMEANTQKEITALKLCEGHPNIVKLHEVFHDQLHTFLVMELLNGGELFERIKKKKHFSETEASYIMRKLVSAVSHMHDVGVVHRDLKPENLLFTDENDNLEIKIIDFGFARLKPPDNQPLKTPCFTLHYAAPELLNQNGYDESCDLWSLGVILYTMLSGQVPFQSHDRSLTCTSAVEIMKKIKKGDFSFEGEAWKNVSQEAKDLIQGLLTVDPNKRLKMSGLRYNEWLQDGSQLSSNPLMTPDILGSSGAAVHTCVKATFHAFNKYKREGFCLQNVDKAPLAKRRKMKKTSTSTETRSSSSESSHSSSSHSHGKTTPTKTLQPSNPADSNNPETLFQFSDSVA

[15] = test system: RPS6KB1 (human), P23443 [T412E]
[16] = biological target: PIM2 (human) (UniProt Q9P1W9)
[17] = biological target: CHEK2 (human) (UniProt O96017)
Chain of CHEK2 (human) (O96017 whole entry, looked up): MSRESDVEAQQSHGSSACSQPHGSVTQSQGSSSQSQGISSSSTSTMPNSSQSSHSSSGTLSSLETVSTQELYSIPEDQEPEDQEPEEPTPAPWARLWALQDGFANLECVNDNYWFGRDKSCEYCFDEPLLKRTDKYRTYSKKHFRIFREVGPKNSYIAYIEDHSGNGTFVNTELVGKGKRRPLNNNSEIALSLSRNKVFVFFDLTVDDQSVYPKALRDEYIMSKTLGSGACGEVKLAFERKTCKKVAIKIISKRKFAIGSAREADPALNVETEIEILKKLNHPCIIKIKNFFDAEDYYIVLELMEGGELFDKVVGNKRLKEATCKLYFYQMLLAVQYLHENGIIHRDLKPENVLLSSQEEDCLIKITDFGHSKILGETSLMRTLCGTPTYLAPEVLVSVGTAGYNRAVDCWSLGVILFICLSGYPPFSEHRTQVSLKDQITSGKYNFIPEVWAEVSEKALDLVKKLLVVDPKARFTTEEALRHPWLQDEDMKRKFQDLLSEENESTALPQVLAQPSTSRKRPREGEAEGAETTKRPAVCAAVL

[18] = biological target: MAPK15 (human) (UniProt Q8TD08)
[19] = biological target: EPHB2 (human) (UniProt P29323)
[20] = biological target: MAPK9 (human) (UniProt P45984)
Chain of MAPK9 (human) (P45984 whole entry, looked up): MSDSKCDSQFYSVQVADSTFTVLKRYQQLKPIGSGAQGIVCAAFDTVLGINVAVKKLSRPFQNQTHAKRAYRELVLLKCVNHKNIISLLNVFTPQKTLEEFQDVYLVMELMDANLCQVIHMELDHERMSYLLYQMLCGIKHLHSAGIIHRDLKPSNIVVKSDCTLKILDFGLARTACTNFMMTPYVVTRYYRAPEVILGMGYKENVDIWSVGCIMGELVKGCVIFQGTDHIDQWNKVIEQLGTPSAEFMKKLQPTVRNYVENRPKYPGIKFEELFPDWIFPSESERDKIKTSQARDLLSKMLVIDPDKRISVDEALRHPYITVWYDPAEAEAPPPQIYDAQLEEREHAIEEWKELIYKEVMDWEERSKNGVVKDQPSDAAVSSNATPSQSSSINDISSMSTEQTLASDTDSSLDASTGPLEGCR

[21] = biological target: BTK (human) (UniProt Q06187)
Chain of BTK (human) (Q06187 whole entry, looked up): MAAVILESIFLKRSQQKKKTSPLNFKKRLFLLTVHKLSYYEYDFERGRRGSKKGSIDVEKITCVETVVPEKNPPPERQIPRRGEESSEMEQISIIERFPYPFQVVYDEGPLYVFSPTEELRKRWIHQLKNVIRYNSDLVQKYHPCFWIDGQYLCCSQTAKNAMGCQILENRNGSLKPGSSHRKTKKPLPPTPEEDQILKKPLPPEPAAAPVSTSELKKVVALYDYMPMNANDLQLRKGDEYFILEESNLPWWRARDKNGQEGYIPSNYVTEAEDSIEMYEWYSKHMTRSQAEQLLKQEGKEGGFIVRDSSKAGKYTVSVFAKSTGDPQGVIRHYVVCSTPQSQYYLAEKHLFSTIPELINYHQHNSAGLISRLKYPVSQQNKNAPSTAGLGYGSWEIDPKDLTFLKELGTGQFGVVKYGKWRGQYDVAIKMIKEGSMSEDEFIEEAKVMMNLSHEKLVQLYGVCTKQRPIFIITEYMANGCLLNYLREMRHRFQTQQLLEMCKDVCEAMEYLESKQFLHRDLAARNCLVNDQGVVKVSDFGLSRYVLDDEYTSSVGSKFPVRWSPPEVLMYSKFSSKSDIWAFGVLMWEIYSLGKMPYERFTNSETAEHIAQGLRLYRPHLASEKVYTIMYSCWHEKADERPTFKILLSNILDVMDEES

[22] = biological target: PAK4 (human) (UniProt O96013)
[23] = biological target: DYRK3 (human) (UniProt O43781)
[24] = biological target: DAPK1 (human) (UniProt P53355)
[25] = biological target: RIPK2 (human) (UniProt O43353)
[26] = biological target: ERBB4 (human) (UniProt Q15303)
[27] = biological target: PIM1 (human) (UniProt P11309)
[28] = biological target: JAK2 JH1 JH2 (human) (UniProt O60674)
[29] = test system: PRKAA1 or PRKAA2 (rat); details: accession and sequence are those of the human protein
[30] = biological target: CSK (human) (UniProt P41240)
Chain of CSK (human) (P41240 whole entry, looked up): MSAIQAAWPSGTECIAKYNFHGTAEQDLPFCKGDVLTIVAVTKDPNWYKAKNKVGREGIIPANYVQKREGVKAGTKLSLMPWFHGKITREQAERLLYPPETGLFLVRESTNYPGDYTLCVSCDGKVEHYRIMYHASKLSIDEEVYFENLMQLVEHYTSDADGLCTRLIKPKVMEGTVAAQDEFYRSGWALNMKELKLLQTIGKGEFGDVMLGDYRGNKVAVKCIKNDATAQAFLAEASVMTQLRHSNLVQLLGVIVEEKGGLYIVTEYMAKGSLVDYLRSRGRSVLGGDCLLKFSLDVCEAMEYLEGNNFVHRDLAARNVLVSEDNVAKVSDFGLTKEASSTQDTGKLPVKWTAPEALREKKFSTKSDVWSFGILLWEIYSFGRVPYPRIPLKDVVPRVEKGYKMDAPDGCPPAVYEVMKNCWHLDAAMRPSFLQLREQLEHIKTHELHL

[31] = biological target: MINK1 (human) (UniProt Q8N4C8)
[32] = biological target: GSK3B (human) (UniProt P49841)
[33] = biological target: MAP2K1 (human) (UniProt Q02750)
Chain of MAP2K1 (human) (Q02750 whole entry, looked up): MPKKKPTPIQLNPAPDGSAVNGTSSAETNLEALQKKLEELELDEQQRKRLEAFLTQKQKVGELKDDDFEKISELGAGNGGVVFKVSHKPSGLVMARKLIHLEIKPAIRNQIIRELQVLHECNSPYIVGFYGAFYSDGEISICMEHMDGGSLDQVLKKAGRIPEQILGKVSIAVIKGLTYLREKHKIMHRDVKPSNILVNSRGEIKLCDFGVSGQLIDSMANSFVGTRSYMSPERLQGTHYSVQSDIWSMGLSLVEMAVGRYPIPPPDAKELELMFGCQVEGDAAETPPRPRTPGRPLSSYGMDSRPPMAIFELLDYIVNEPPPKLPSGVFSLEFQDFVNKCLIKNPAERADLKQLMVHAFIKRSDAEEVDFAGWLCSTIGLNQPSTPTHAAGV

## COc1cc(C(=O)N2CCC(N3CCN(C)CC3)CC2)ccc1Nc1ncc2c(n1)N(C)c1ccccc1C(=O)N2C
[1]; compound 1.0 µM
  residual activity: 93%
[1]; compound 10.0 µM
  residual activity: 94%
[2]; compound 1.0 µM
  residual activity: 98%
[2]; compound 10.0 µM
  residual activity: 59%
[3]; compound 1.0 µM
  residual activity: 83%
[3]; compound 10.0 µM
  residual activity: 78%
[4]; compound 1.0 µM
  residual activity: 84%
[4]; compound 10.0 µM
  residual activity: 89%
[5]; compound 1.0 µM
  residual activity: 100%
[5]; compound 10.0 µM
  residual activity: 98%
[6]; compound 1.0 µM
  residual activity: 98%
[6]; compound 10.0 µM
  residual activity: 110%
[7]; compound 1.0 µM
  residual activity: 93%
[7]; compound 10.0 µM
  residual activity: 79%
[8]; compound 1.0 µM
  residual activity: 87%
[8]; compound 10.0 µM
  residual activity: 83%
[9]; compound 1.0 µM
  residual activity: 83%
[9]; compound 10.0 µM
  residual activity: 85%
[10]; compound 1.0 µM
  residual activity: 94%
[10]; compound 10.0 µM
  residual activity: 87%
[11]; compound 1.0 µM
  residual activity: 82%
[11]; compound 10.0 µM
  residual activity: 96%
[12]
  IC50: > 100 µM
[12]; compound 1.0 µM
  residual activity: 73%
[12]; compound 10.0 µM
  residual activity: 35%
[13]
  IC50: 210 nM
[14]; compound 1.0 µM
  residual activity: 79%
[14]; compound 10.0 µM
  residual activity: 84%
[15]; compound 1.0 µM
  residual activity: 86%
[15]; compound 10.0 µM
  residual activity: 81%
[16]; compound 1.0 µM
  residual activity: 87%
[16]; compound 10.0 µM
  residual activity: 97%
[17]
  IC50: 2000 nM
[17]; compound 1.0 µM
  residual activity: 38%
[17]; compound 10.0 µM
  residual activity: 13%
[18]; compound 1.0 µM
  residual activity: 86%
[18]; compound 10.0 µM
  residual activity: 104%
[19]; compound 1.0 µM
  residual activity: 96%
[19]; compound 10.0 µM
  residual activity: 93%
[20]; compound 1.0 µM
  residual activity: 79%
[20]; compound 10.0 µM
  residual activity: 98%
[21]; compound 1.0 µM
  residual activity: 95%
[21]; compound 10.0 µM
  residual activity: 75%
[22]; compound 1.0 µM
  residual activity: 94%
[22]; compound 10.0 µM
  residual activity: 108%
[23]; compound 1.0 µM
  residual activity: 95%
[23]; compound 10.0 µM
  residual activity: 96%
[24]; compound 1.0 µM
  residual activity: 85%
[24]; compound 10.0 µM
  residual activity: 77%
[25]; compound 1.0 µM
  residual activity: 103%
[25]; compound 10.0 µM
  residual activity: 101%
[26]; compound 1.0 µM
  residual activity: 68%
[26]; compound 10.0 µM
  residual activity: 72%
[27]; compound 1.0 µM
  residual activity: 94%
[27]; compound 10.0 µM
  residual activity: 87%
[28]; compound 1.0 µM
  residual activity: 74%
[28]; compound 10.0 µM
  residual activity: 80%
[29]; compound 1.0 µM
  residual activity: 70%
[29]; compound 10.0 µM
  residual activity: 46%
[30]; compound 1.0 µM
  residual activity: 70%
[30]; compound 10.0 µM
  residual activity: 80%
[31]; compound 1.0 µM
  residual activity: 99%
[31]; compound 10.0 µM
  residual activity: 108%
[32]; compound 1.0 µM
  residual activity: 90%
[32]; compound 10.0 µM
  residual activity: 95%
[33]; compound 1.0 µM
  residual activity: 94%
[33]; compound 10.0 µM
  residual activity: 86%
